Each structure is given as a SMILES string.

The first test is described as follows: HCV replicon assay (luciferase) in ET (Huh-lucubineo-ET) cell line. The format is cell-based. To be noted: Hepatitis C virus; tested at 5 μM; inhibition of replication relative to no compound control; ET replicon cells, luciferase 48-72 hours.
Compound `Fc1ccccc1-c1nc2cnn(Cc3cc(-c4ccc(OC(F)(F)F)cc4)no3)cc-2n1` [Compound 108, 2-(2-Fluoro-phenyl)-5-[3-(4-trifluoromethoxy-phenyl)-isoxazol-5-ylmethyl]-5H-imidazo[4,5-d]pyridazine] had an inhibition at 5 µM of 99.9%.
On to `Fc1ccccc1-c1nc2cnn(Cc3cc(-c4ccc(C(F)(F)F)cc4C(F)(F)F)no3)cc-2n1` [Compound 114, 5-[3-(2,4-Bis-trifluoromethyl-phenyl)-isoxazol-5-ylmethyl]-2-(2-fluoro-phenyl)-5H-imidazo[4,5-d]pyridazine], for which the inhibition at 5 µM was 99.3%.

The test is the same for the next values; noted with them: Hepatitis C virus; tested at 10 μM; inhibition of replication relative to no compound control; ET replicon cells, luciferase 48-72 hours; read-out: % inhition at 10 μM.
For the compound `CCCOc1ccc(-c2cc(Cn3cc4nc(-c5cccc(F)c5F)nc-4c(N)n3)on2)cc1` [Compound 235, 2-(2,3-Difluoro-phenyl)-6-[3-(4-propoxy-phenyl)-isoxazol-5-ylmethyl]-6H-imidazo[4,5-d]pyridazin-4-ylamine], the inhibition at 10 µM came out at 56%.
Regarding `COc1ccc(-c2ccc(-c3cc(Cn4cc5nc(-c6cccc(F)c6F)nc-5cn4)on3)cc2)cc1` [Compound 268, 2-(2,3-Difluoro-phenyl)-5-[3-(4′-methoxy-biphenyl-4-yl)-isoxazol-5-ylmethyl]-5H-imidazo[4,5-d]pyridazine], the inhibition at 10 µM stood at 93.7%.
Same read-out and setting: for `Fc1ccccc1-c1nc2cnn(Cc3cc(-c4ccc(OC(F)(F)F)cc4)no3)cc-2n1` [Compound 108, 2-(2-Fluoro-phenyl)-5-[3-(4-trifluoromethoxy-phenyl)-isoxazol-5-ylmethyl]-5H-imidazo[4,5-d]pyridazine] the value was 100%.
Same read-out and setting: for `CCOc1ccc(-c2cc(Cn3cc4nc(-c5cccc(F)c5F)nc-4cn3)on2)cc1` [Compound 220, 2-(2,3-Difluoro-phenyl)-5-[3-(4-ethoxy-phenyl)-isoxazol-5-ylmethyl]-5H-imidazo[4,5-d]pyridazine] the value was 99.7%; for `Fc1cc(C(F)(F)F)ccc1-c1cc(Cn2cc3nc(-c4cccc(F)c4F)nc-3cn2)on1` [Compound 203, 2-(2,3-Difluoro-phenyl)-5-[3-(2-fluoro-4-trifluoromethyl-phenyl)-isoxazol-5-ylmethyl]-5H-imidazo[4,5-d]pyridazine], 99.6%; for `Fc1cccc(-c2nc3cnn(Cc4cc(-c5ccc(OCCN6CCCC6)cc5)no4)cc-3n2)c1F` [Compound 158, 2-(2,3-Difluoro-phenyl)-5-{3-[4-(2-pyrrolidin-1-yl-ethoxy)-phenyl]-isoxazol-5-ylmethyl}-5H-imidazo[4,5-d]pyridazine], 27.9%.
The same measure, in the same setting: for `CC(C)(C)c1ccc(-c2cc(Cn3cc4nc(-c5ccccc5F)nc-4cn3)on2)cc1` [Compound 283, 5-[3-(4-tert-Butyl-phenyl)-isoxazol-5-ylmethyl]-2-(2-fluoro-phenyl)-5H-imidazo[4,5-d]pyridazine] the value was 66.7%; for `Fc1cccc(-c2nc3cnn(Cc4cc(-c5ccc(OC(F)(F)F)cc5)no4)cc-3n2)c1F` [Compound 214, 2-(2,3-Difluoro-phenyl)-5-[3-(4-trifluoromethoxy-phenyl)-isoxazol-5-ylmethyl]-5H-imidazo[4,5-d]pyridazine], 98.5%; for `C#Cc1ccc(-c2cc(Cn3cc4nc(-c5cccc(F)c5F)nc-4cn3)on2)cc1` [Compound 334, 2-(2,3-Difluoro-phenyl)-5-[3-(4-ethynyl-phenyl)-isoxazol-5-ylmethyl]-5H-imidazo[4,5-d]pyridazine], 99%.
Turning to `Fc1cccc(-c2nc3cnn(Cc4cc(-c5ccc(CCC(F)(F)F)cc5)no4)cc-3n2)c1F` [Compound 331, 2-(2,3-Difluoro-phenyl)-5-{3-[4-(3,3,3-trifluoro-propyl)-phenyl]-isoxazol-5-ylmethyl}-5H-imidazo[4,5-d]pyridazine], the inhibition at 10 µM is 99.9%.
With `Fc1cccc(-c2nc3cnn(Cc4cc(-c5ccc(I)cc5)no4)cc-3n2)c1F` [Compound 306, 2-(2,3-Difluoro-phenyl)-5-[3-(4-iodo-phenyl)-isoxazol-5-ylmethyl]-5H-imidazo[4,5-d]pyridazine], the inhibition at 10 µM is 99.9%.
The same measure, in the same setting: for `Fc1ccccc1-c1nc2cnn(Cc3cc(-c4ccc(C(F)(F)F)cc4C(F)(F)F)no3)cc-2n1` [Compound 114, 5-[3-(2,4-Bis-trifluoromethyl-phenyl)-isoxazol-5-ylmethyl]-2-(2-fluoro-phenyl)-5H-imidazo[4,5-d]pyridazine] the value was 98.5%.
The same measure, in the same setting: then `CC(C)c1ccc(-c2cc(Cn3cc4nc(-c5cccc(F)c5F)nc-4cn3)on2)cc1` [Compound 305, 2-(2,3-Difluoro-phenyl)-5-[3-(4-isopropyl-phenyl)-isoxazol-5-ylmethyl]-5H-imidazo[4,5-d]pyridazine], with 99.4%.
Same read-out and setting: for `CC(C)(C)C#Cc1ccc(-c2cc(Cn3cc4nc(-c5cccc(F)c5F)nc-4cn3)on2)cc1` [Compound 333, 2-(2,3-Difluoro-phenyl)-5-{3-[4-(3,3-dimethyl-but-1-ynyl)-phenyl]-isoxazol-5-ylmethyl}-5H-imidazo[4,5-d]pyridazine] the value was 86.4%; for `Cc1ccc(-c2cc(Cn3cc4nc(-c5cccc(F)c5F)nc-4cn3)no2)nn1` [Compound 318, 2-(2,3-Difluoro-phenyl)-5-[5-(6-methyl-pyridazin-3-yl)-isoxazol-3-ylmethyl]-5H-imidazo[4,5-d]pyridazine], 50%.
On to `Nc1nn(Cc2cc(-c3ccc(C(F)(F)F)cc3C(F)(F)F)no2)c(N)c2nc(-c3cccc(F)c3F)nc1-2` [Compound 237, 5-[3-(2,4-Bis-trifluoromethyl-phenyl)-isoxazol-5-ylmethyl]-2-(2,3-difluoro-phenyl)-5H-imidazo[4,5-d]pyridazine-4,7-diamine], for which the inhibition at 10 µM was found to be 1.73%.
On the same count and under the same terms, for `Fc1cccc(-c2nc3cnn(Cc4cc(-c5ccc(OC(F)(F)C(F)C(F)(F)F)cc5)no4)cc-3n2)c1F` (stereo not shown) [Compound 170, 2-(2,3-Difluoro-phenyl)-5-{3-[4-(1,1,2,3,3,3-hexafluoro-propoxy)-phenyl]-isoxazol-5-ylmethyl}-5H-imidazo[4,5-d]pyridazine] the value was 97.9%; for `CC(Nc1nc2cnn(Cc3cc(-c4ccc(C(F)(F)F)cc4C(F)(F)F)no3)cc-2n1)c1ccccc1` (stereo not shown) [Compound 258, {5-[3-(2,4-Bis-trifluoromethyl-phenyl)-isoxazol-5-ylmethyl]-5H-imidazo[4,5-d]pyridazin-2-yl}-(1-phenyl-ethyl)-amine], 40%.
As to `Fc1cccc(-c2nc3cnn(Cc4cc(-c5ccc(-c6cn[nH]c6)cc5C(F)(F)F)no4)cc-3n2)c1F` [Compound 322, 2-(2,3-Difluoro-phenyl)-5-{3-[4-(1H-pyrazol-4-yl)-2-trifluoromethyl-phenyl]-isoxazol-5-ylmethyl}-5H-imidazo[4,5-d]pyridazine], the inhibition at 10 µM turned out to be 94.9%.
Regarding `CCCCCc1ccc(-c2cc(Cn3cc4nc(-c5cccc(F)c5F)nc-4cn3)on2)cc1` [Compound 191, 2-(2,3-Difluoro-phenyl)-5-[3-(4-pentyl-phenyl)-isoxazol-5-ylmethyl]-5H-imidazo[4,5-d]pyridazine], the inhibition at 10 µM was determined as 99.8%.
Still for that read-out and setting: for `O=[N+]([O-])c1ccc(-c2cc(Cn3cc4nc(-c5cccc(F)c5F)nc-4cn3)on2)cc1` [Compound 199, 2-(2,3-Difluoro-phenyl)-5-[3-(4-nitro-phenyl)-isoxazol-5-ylmethyl]-5H-imidazo[4,5-d]pyridazine] the value was 98.5%.
On to `Fc1cccc(-c2nc3cnn(Cc4cc(-c5ccc(OC(F)(F)F)c(Cl)c5)no4)cc-3n2)c1F` [Compound 165, 5-[3-(3-Chloro-4-trifluoromethoxy-phenyl)-isoxazol-5-ylmethyl]-2-(2,3-difluoro-phenyl)-5H-imidazo[4,5-d]pyridazine], for which the inhibition at 10 µM was 79.4%.
`Nc1nn(Cc2cc(-c3ccc(C(F)(F)F)cc3C(F)(F)F)no2)cc2nc(-c3cccc(F)c3F)nc1-2` [Compound 233, 6-[3-(2,4-Bis-trifluoromethyl-phenyl)-isoxazol-5-ylmethyl]-2-(2,3-difluoro-phenyl)-6H-imidazo[4,5-d]pyridazin-4-ylamine]: the inhibition at 10 µM came to 96.8%.
Still for that read-out and setting: for `Fc1cccc(-c2nc3cnn(Cc4cc(-c5ccc(OC(F)(F)C(F)F)cc5)no4)cc-3n2)c1F` [Compound 175, 2-(2,3-Difluoro-phenyl)-5-{3-[4-(1,1,2,2-tetrafluoro-ethoxy)-phenyl]-isoxazol-5-ylmethyl}-5H-imidazo[4,5-d]pyridazine] the value was 99.8%; for `CCCC(F)(F)c1ccc(-c2cc(Cn3cc4nc(-c5cccc(F)c5F)nc-4cn3)on2)cc1` [Compound 316, 5-{3-[4-(1,1-Difluoro-butyl)-phenyl]-isoxazol-5-ylmethyl}-2-(2,3-difluoro-phenyl)-5H-imidazo[4,5-d]pyridazine], 99.7%.
Consider `CC(=O)c1ccc(F)c(-c2nc3cnn(Cc4cc(-c5ccc(C(F)(F)F)cc5C(F)(F)F)no4)cc-3n2)c1` [Compound 137, 1-(3-{5-[3-(2,4-Bis-trifluoromethyl-phenyl)-isoxazol-5-ylmethyl]-5H-imidazo[4,5-d]pyridazin-2-yl}-4-fluoro-phenyl)-ethanone], for which the inhibition at 10 µM came out at 40.4%.

For the origin of these results see US20090197880A1 (Genelabs Technologies, Inc., priority 2007, published 2009).
